In ChEMBL document CHEMBL1137042, “Synthesis and cytotoxic activity of novel derivatives of 4'-demethylepipodophyllotoxin” (Bioorg Med Chem Lett, 2004):
pIC50: −log10 of the molar value.

Key:
HL-60 = experiment: In vitro inhibitory concentration required against human leukemic HL-60 cell line was determined after 48 hrs of drug exposure using MTT method; assay type: functional, cell-based; details: HL-60, 48 h
A549 = experiment: In vitro inhibitory concentration required against human lung carcinoma A-549 cell line was determined after 72 hrs of drug exposure using SRB method; assay type: functional, cell-based; details: A549, 72 h

Structure (SMILES)	pIC50 (HL-60)	pIC50 (A549)
COc1cc([C@@H]2c3cc4c(cc3[C@@H](NC(CSC)C(=O)OCCCCCn3cc(F)c(=O)[nH]c3=O)[C@H]3COC(=O)[C@H]23)OCO4)cc(OC)c1O (stereo not given in full)	7.40	6.64
COc1cc([C@@H]2c3cc4c(cc3[C@@H](NC(C(=O)OCCCCCn3cc(F)c(=O)[nH]c3=O)C(C)Cc3ccccc3)[C@H]3COC(=O)[C@H]23)OCO4)cc(OC)c1O (stereo not given in full)	6.52	6.28
COc1cc([C@@H]2c3cc4c(cc3[C@@H](NC(Cc3ccccc3)C(=O)OCCCCn3cc(F)c(=O)[nH]c3=O)[C@H]3COC(=O)[C@H]23)OCO4)cc(OC)c1O (stereo not given in full)	6.38	6.52
COc1cc([C@@H]2c3cc4c(cc3[C@@H](NC(CSC)C(=O)OCCCn3cc(F)c(=O)[nH]c3=O)[C@H]3COC(=O)[C@H]23)OCO4)cc(OC)c1O (stereo not given in full)	6.00	6.54
COc1cc([C@@H]2c3cc4c(cc3[C@@H](NC(CSC)C(=O)OCCCCn3cc(F)c(=O)[nH]c3=O)[C@H]3COC(=O)[C@H]23)OCO4)cc(OC)c1O (stereo not given in full)	7.30	5.73
COc1cc([C@@H]2c3cc4c(cc3[C@@H](NC(Cc3ccccc3)C(=O)OCCCCCn3cc(F)c(=O)[nH]c3=O)[C@H]3COC(=O)[C@H]23)OCO4)cc(OC)c1O (stereo not given in full)	7.40	> 8.00
COc1cc([C@@H]2c3cc4c(cc3[C@@H](NC(C(=O)OCCCCn3cc(F)c(=O)[nH]c3=O)C(C)Cc3ccccc3)[C@H]3COC(=O)[C@H]23)OCO4)cc(OC)c1O (stereo not given in full)	6.28	6.13
COc1cc([C@@H]2c3cc4c(cc3[C@@H](NC(Cc3ccccc3)C(=O)OCCCn3cc(F)c(=O)[nH]c3=O)[C@H]3COC(=O)[C@H]23)OCO4)cc(OC)c1O (stereo not given in full)	6.51	6.32
COc1cc([C@@H]2c3cc4c(cc3[C@@H](NC(C(=O)OCCCn3cc(F)c(=O)[nH]c3=O)C(C)Cc3ccccc3)[C@H]3COC(=O)[C@H]23)OCO4)cc(OC)c1O (stereo not given in full)	6.62	6.74
O=c1[nH]cc(F)c(=O)[nH]1 [FLUOROURACIL]	4.19	4.30
